Measured values as given in patent US20170121385A1 (Oxeia Biopharmaceuticals, Inc., priority 2015, published 2017).
pKi: −log10 of the molar value. Where two headings read alike, the source gives them in different places.

What was measured:
GHS-R = GHS-R (Homo sapiens, UniProt Q92847); assay: GHS-R antagonist activity in a cell based assay; details: GHS-R modulating compounds
mild TBI [1] = assay: mild TBI model (controlled cortical impactor), whole brain oxidative burst assay by flow cytometry; format: in vivo, mouse
Method: In a mild TBI model, ghrelin therapy provided significant neuroprotective effects. Using a controlled cortical impactor, with standardized settings (5.0 m/s, a 3 mm diameter impounder tip, a depth of 1.0 mm, and a dwell time of 0.2 milliseconds), a mouse mild brain injury was elicited in three groups (n=5 in each group), sham, mTBI only, mTBI with 2 doses of ghrelin (50 μg/kg) 10 minutes and 1 hour after injury. Animals were sacrificed after 24 hours and whole brain reactive oxygen species was assessed by an oxidative burst assay as measured by flow cytometry. […] Ghrelin therapy decreased mTBI oxidative burst to sham levels 3,300 MFI (SEM 1,000); p<0.05 mTBI compared to drug treated.

mild TBI [2] = assay: mild TBI model, myeloperoxidase (MPO) and Gr-1 (neutrophil) staining in the hippocampus; format: in vivo, mouse; details: same three animal groups
Method: In a mild TBI model, ghrelin therapy provided significant neuroprotective effects. Using a controlled cortical impactor, with standardized settings (5.0 m/s, a 3 mm diameter impounder tip, a depth of 1.0 mm, and a dwell time of 0.2 milliseconds), a mouse mild brain injury was elicited in three groups (n=5 in each group), sham, mTBI only, mTBI with 2 doses of ghrelin (50 μg/kg) 10 minutes and 1 hour after injury. Ghrelin reduces oxidative burst (a measure of ROS) following mild TBI in animal models. Oxidative burst was determined 24 hours following mild TBI in three groups via flow cytometry. […] In separate experiments, using the same three animal groups, myeloperoxidase (MPO) and Gr-1 (neutrophil) staining were conducted in the hippocampus. […] Myeloperoxidase (MPO) is a potent enzyme in neutrophils and […] that forms hypochlorous acid (ROS). […] Ghrelin therapy reduced MPO staining. These observations built upon previous work showing ghrelin's protective effect following severe TBI models, stroke and other neurodegenerative diseases.

severe TBI [3] = assay: severe TBI model (brain tissue loss, apoptosis, balance beam foot faults, edema); format: in vivo, mice; details: as low as 20 μg/kg in two doses early after injury; pre-clinical modeling
From the text: In a series of publications, the Bansal laboratory has shown that exogenously dosed ghrelin confers significant neuroprotective benefits following severe TBI. […] Severe TBI causes significant tissue necrosis and neuron loss secondary to edema and apoptosis. […] Severe TBI induces apoptosis within the neocortex (TUNEL staining green). […] Severe TBI caused significant neurocognitive defects (as measured by foot faults on a balance beam assay) on post-TBI Day 1, 3 and 7 compared to sham.

severe TBI [4] = details: cited from earlier work; for brain tissue loss / loss of brain volume: 7 days following injury, 10 minutes and 1 hour after TBI; for brain tissue loss / loss of brain volume / apoptosis in the neocortex (TUNEL staining): ghrelin 20 μg/kg; for apoptosis in the neocortex (TUNEL staining): two doses
rodent brain injury = details: cited from earlier work
[5] = human, in vivo; cited from earlier work

Chain of GHS-R (Q92847 whole entry, species assumed): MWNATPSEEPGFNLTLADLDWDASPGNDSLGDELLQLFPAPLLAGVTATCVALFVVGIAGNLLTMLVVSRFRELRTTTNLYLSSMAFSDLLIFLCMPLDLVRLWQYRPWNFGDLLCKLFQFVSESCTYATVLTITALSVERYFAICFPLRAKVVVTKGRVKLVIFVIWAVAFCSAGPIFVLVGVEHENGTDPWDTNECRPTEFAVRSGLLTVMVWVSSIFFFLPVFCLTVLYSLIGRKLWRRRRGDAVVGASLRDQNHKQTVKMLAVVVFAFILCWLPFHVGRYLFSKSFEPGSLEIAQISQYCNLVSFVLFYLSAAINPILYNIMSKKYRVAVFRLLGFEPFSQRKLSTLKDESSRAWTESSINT

Compound	pKi (GHS-R)	efficacy in mTBI (mild TBI [1]; 50 μg/kg, two doses administered within 24 hours of injury, initial pre-clinical experiments)	oxidative burst (a measure of ROS) following mild TBI (mild TBI [1]; 24 hours following mild TBI, flow cytometry)	oxidative burst (whole brain reactive oxygen species) (mild TBI [1]; mouse mTBI, 2 doses of ghrelin (50 μg/kg) 10 minutes and 1 hour after injury, sacrificed after 24 hours, flow cytometry, n=5)	MPO staining in the hippocampus (mild TBI [2])	neutrophil infiltration (Gr-1 staining) in the hippocampus (mild TBI [2])	post-severe TBI edema (severe TBI [3])	brain tissue loss / loss of brain volume (severe TBI [4]; listed as ghrelin)	brain tissue loss / loss of brain volume (severe TBI [4])	invasion of inflammatory cells (severe TBI [4])	apoptosis in the neocortex (TUNEL staining) (severe TBI [4]; listed as ghrelin)	apoptosis in the neocortex (TUNEL staining) (severe TBI [4])	neurocognitive function (foot faults on a balance beam assay) (severe TBI [4]; post-TBI Day 1, 3 and 7, ghrelin dosed only at Day 0, listed as ghrelin)	neurocognitive function (foot faults on a balance beam assay) (severe TBI [4]; post-TBI Day 1, 3 and 7, ghrelin dosed only at Day 0)	ROS accumulation (rodent brain injury)	neuro-cognitive function (rodent brain injury)	neuron tissue loss (rodent brain injury)	neuronal apoptosis (rodent brain injury)	serious adverse events [5]	side effects observed [5]
CCN(CC)CCCS(=O)(=O)N[C@H](CCc1ccccc1)c1nc(-c2cncc(Br)c2)no1 [Compound 103]	6.30 to 7.00																			
Ghrelin (GSSFLSPEHQRVQQRKESKKPPAKLQPR; Ghrelin-28; UniProt Q9UBU3 24-51, looked up)		efficacy	significantly reduced	3,300 MFI	significant reduction	significant reduction	significant decrease	significantly less	significantly decreased	decreased	significantly less	significantly reduced	improved	prevented neurocognitive decline to levels of sham	prevents	improves	decreases	prevents	no serious adverse events	only transient gastrointestinal symptoms
